Among the data in ChEMBL document CHEMBL1155829, “Synthesis and cytotoxic, anti-inflammatory, and anti-oxidant activities of 2',5'-dialkoxylchalcones as cancer chemopreventive agents” (Bioorg Med Chem, 2008) are IC50 and Activity values, retold here.

The structures appear in SMILES notation. Calls of active or inactive are those of the source. No cut-off for these calls is given here.

One assay relates to MCF7. Briefly: Cytotoxicity against human MCF7 cells by MTT assay. Format: functional, cell-based. For orientation: Formazan colour is commonly taken as a measure of viable cells.
Assay [1] is described as follows: Cytotoxicity against human Hep3B cells by MTT assay. Format: functional, cell-based, Hep 3B2.
In assay [2] the target is Xanthine dehydrogenase/oxidase (Homo sapiens, UniProt P47989). The experiment in a line: Inhibition of xanthine oxidase.
Assay [3] can be described thus: Antioxidant activity assessed as inhibition of superoxide radical-induced DNA damage of pBR322 at 300 uM after 20 mins by gel electrophoresis. Format: functional.
Assay [4] concerns Radical scavenging activity. Briefly: Antioxidant activity assessed as DPPH radical scavenging activity. Format: functional. On the technique in general: Loss of DPPH colour is used to gauge radical scavenging.
Assay [5] deals with RAW264.7. The experiment in a line: Antiinflammatory activity against mouse RAW264.7 cells assessed as inhibition of LPS-induced nitric oxide production. In kind it is functional, cell-based.
In assay [6] the test system is A549. The experiment in a line: Cytotoxicity against human A549 cells by MTT assay. Format: functional, cell-based.
For a further assay, the system named is HT-29. The experiment in a line: Cytotoxicity against human HT29 cells by MTT assay. In kind it is functional, cell-based.
The test system of assay [7] is A549. Briefly: Cell cycle arrest in human A549 cells assessed as accumulation at G1 phase at 10 uM after 24 hrs by flow cytometry. In kind it is functional.
For assay [8], the system named is A549. Briefly: Cell cycle arrest in human A549 cells assessed as accumulation at G2/M phase at 0.03 uM after 24 hrs by flow cytometry. Format: functional.
The test system of assay [9] is A549. Briefly: Cell cycle arrest in human A549 cells assessed as accumulation at G1 phase at 0.1 uM after 24 hrs by flow cytometry. In kind it is functional. On the technique in general: Flow cytometry measures light scatter and fluorescence of single cells or particles in a stream.
Assay [10] has as its system A549. Briefly: Cell cycle arrest in human A549 cells assessed as accumulation at S phase at 0.03 uM after 24 hrs by flow cytometry. In kind it is functional.
The test system of assay [11] is A549. Briefly: Cell cycle arrest in human A549 cells assessed as accumulation at S phase at 10 uM after 24 hrs by flow cytometry. In kind it is functional.
Assay [12] deals with A549. Briefly: Cell cycle arrest in human A549 cells assessed as accumulation at S phase at 0.1 uM after 24 hrs by flow cytometry. In kind it is functional.
Assay [13] relates to RAW264.7. Briefly: Antiinflammatory activity against mouse RAW264.7 cells assessed as inhibition of LPS-induced TNFalpha formation. In kind it is functional, cell-based.
For assay [14], the system named is A549. The experiment in a line: Cell cycle arrest in human A549 cells assessed as accumulation at G2/M phase at 0.1 uM after 24 hrs by flow cytometry. In kind it is functional.
Assay [15] concerns A549. The experiment in a line: Cell cycle arrest in human A549 cells assessed as accumulation at G1 phase at 0.03 uM after 24 hrs by flow cytometry. Format: functional.
Assay [16] has as its system A549. The experiment in a line: Cell cycle arrest in human A549 cells assessed as accumulation at G2/M phase at 10 uM after 24 hrs by flow cytometry. Format: functional.
Assay [17] in a line: Inhibition of tubulin polymerization.

Chain of Xanthine dehydrogenase/oxidase (P47989 whole entry): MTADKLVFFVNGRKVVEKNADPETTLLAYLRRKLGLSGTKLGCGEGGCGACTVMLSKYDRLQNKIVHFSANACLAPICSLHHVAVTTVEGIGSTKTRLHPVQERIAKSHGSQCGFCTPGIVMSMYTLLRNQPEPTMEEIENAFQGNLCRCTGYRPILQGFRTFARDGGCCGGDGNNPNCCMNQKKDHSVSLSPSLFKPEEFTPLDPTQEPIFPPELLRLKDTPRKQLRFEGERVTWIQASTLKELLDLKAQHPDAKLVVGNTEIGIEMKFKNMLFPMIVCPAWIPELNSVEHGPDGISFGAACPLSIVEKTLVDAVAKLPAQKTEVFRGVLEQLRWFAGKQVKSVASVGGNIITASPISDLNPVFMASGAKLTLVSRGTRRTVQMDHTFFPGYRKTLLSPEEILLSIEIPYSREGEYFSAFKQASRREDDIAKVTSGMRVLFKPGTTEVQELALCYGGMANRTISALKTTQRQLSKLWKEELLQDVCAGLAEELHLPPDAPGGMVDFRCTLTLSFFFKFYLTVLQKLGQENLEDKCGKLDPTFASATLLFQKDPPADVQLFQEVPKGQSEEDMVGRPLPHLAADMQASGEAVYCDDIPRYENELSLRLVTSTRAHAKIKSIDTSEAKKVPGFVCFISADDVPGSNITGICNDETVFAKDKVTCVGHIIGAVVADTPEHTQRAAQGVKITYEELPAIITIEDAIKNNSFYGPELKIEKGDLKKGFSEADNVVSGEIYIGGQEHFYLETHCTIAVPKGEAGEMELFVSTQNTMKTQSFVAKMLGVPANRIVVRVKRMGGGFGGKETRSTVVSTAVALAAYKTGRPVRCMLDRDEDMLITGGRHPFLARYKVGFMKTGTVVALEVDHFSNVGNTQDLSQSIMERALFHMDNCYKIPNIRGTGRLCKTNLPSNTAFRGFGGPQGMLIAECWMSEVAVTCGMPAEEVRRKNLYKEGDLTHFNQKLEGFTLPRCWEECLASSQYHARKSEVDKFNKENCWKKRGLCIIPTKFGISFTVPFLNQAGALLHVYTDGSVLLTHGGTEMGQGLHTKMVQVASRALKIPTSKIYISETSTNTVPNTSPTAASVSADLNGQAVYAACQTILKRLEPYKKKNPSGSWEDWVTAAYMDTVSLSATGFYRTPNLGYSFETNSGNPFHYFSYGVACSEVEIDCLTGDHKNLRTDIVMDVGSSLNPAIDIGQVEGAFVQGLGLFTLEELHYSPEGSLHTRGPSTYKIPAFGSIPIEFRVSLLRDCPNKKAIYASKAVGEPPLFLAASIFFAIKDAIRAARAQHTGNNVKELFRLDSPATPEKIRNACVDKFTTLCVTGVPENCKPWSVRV

Broadly, the IC50 is the point on the concentration scale where inhibition reaches its midpoint. With `CCOc1ccc(OCC)c(C(=O)/C=C/c2ccc(C)s2)c1`, the IC50 in the assay with MCF7 came out at 1.4 µM; in assay [1] it was 31.6 µM; in assay [2] it was 21.3 µM; in the assay with RAW264.7 [5], 16.5 µM; in the assay on A549 [6], 4.4 µM; in the assay with HT-29 it was 3.2 µM. Also, the result in [3] was Active. Further, the result in assay [4] was inactive.

Take `CCCCOc1ccc(O)c(C(=O)/C=C/c2ccc(C)s2)c1`: the IC50 in the assay with MCF7 was found to be 38.9 µM; in [1], 91.7 µM; with HT-29, 71.4 µM.

As for `CCCCCOc1ccc(O)c(C(=O)/C=C/c2ccc(C)s2)c1`, the IC50 in the assay on MCF7 was found to be 48.4 µM; in assay [1], 112 µM; in the assay with HT-29, 86.9 µM.

In the case of `CCCCOc1ccc(OC)cc1C(=O)/C=C/c1ccc(C)s1`, the IC50 with MCF7 worked out at 13.9 µM; in assay [1], 10.7 µM; in the assay on RAW264.7 [5], 28 µM; with HT-29 it was 61.1 µM.

In the case of `COc1ccc(O)c(C(=O)/C=C/c2ccc(C)s2)c1`, the IC50 with MCF7 came to 34.6 µM; in assay [1], 87.5 µM; in the assay with HT-29, 71.5 µM.

For `CCCOc1ccc(OC)cc1C(=O)/C=C/c1ccc(C)s1`, the concentration for half-maximal inhibition (IC50) was 0.8 µM in the assay on MCF7, 7 µM in assay [1] and 86.6 µM in the assay on HT-29.

Take `Cc1ccc(/C=C/C(=O)c2cc(OCC(C)C)ccc2O)s1`: the IC50 was 13 µM with MCF7, 54.4 µM in assay [1] and 30.7 µM in the assay on HT-29.

In the case of `CCOc1ccc(OC)cc1C(=O)/C=C/c1ccc(C)s1`, the Activity in the assay on A549 [7] amounted to 64.102%; in the assay on A549 [8], 2.104%; with A549 [9], 65.919%; in the assay with A549 [10], 27.69%; in the assay with A549 [11] it was 24.271%; in the assay with A549 [12], 28.384%. Besides, the results for the Activity with A549 [14], in the assay on A549 [15] and in the assay with A549 [16] were 5.698%, 70.207% and 11.627%, respectively. In addition, the concentration for half-maximal inhibition (IC50) in the assay with MCF7 was determined as 2.3 µM; in assay [1], 0.2 µM; in assay [2], 131 µM; in the assay with RAW264.7 [13], 0.4 µM; in the assay with A549 [6], 6.3 µM; with HT-29 it was 0.1 µM. The outcome in assay [3] and in assay [17] was Active. Also, the result in assay [4] was inactive.

For the compound `COc1ccc(C(=O)/C=C/c2ccc(C)s2)c(O)c1O`, the values for the 50% inhibitory concentration (IC50) (with MCF7; in assay [1]; in the assay on HT-29) were 20.7 µM, 10.7 µM and 53.4 µM, respectively.

Take `CCOc1ccc(O)c(C(=O)/C=C/c2ccc(C)s2)c1`: the figures for the 50% inhibitory concentration (IC50) (in the assay on MCF7; in [1]; in the assay with HT-29) were 23.2 µM, 90.2 µM and 43.4 µM, respectively.

In [1], `O=c1[nH]cc(F)c(=O)[nH]1` [FLUOROURACIL] returned an IC50 of 0.6 µM.

`CCCOc1ccc(O)c(C(=O)/C=C/c2ccc(C)s2)c1`: the IC50 amounted to 21.5 µM in the assay with MCF7, 23.2 µM in assay [1] and 126 µM in the assay on HT-29.

Turning to `Cc1ccc(/C=C/C(=O)c2cc(OC(C)C)ccc2O)s1`, the IC50 worked out at 15.5 µM with MCF7, 81.7 µM in assay [1] and 30.2 µM in the assay with HT-29.

In the case of `Cc1ccc(/C=C/C(=O)c2ccc(O)c(O)c2O)s1`, 35.9 µM corresponded to half-maximal inhibition with HT-29 (IC50).
